Measurements: patent US7976582B2, “Bleaching of substrates” (Conopco, Inc., priority 2007, dated 2011)

Legend:
[1] = Raw cotton bleaching, pH control by continuously adding NaOH (Experiment 1); conditions: for Whiteness (Berger) Wb: 20 microM catalyst, unbuffered, 0.2 g/l DTPA, H2O2, 80° C., 30 minutes
Description: Raw cotton with a Berger Whiteness value of 5.5+/−1.0 was treated as follows: 6 grams of the cotton was immersed into temperature-controlled beaker glasses a 60 ml solution (cloth/liquor ratio of 1/10) containing 20 microM of [Mn2O3(Me3-TACN)2] […]
Drops of NaOH (1M) were added to maintain the pH (within 0.2 pH units) for 30 minutes of agitated solutions at 75 to 80° C. The pH was monitored with a pH meter. Subsequently the cotton swatches were rinsed with 2 to 3 liters of hot demineralised water (80° C.), then washed with copious amounts of demineralised water, spun in a spin drier for 3 minutes and dried overnight under ambient conditions. The optical properties of the cloths were then measured using a Minolta spectrophotometer CM-3700d, using L, a, b values which are converted to Berger Whiteness values.
The values of the whiteness is expressed in Berger units. The formula of Berger whiteness is given below: Wberger=Y+a.Z−b.X, where a=3.448 and b=3.904.
The values X, Y, Z are the coordinates of the achromatic point.

[2] = Raw cotton bleaching, NaOH/H2O2 pretreatment without catalyst, then lower pH and add catalyst (Experiment 2)
Description: Raw cotton with a Berger Whiteness value of 5.5+/−1.0 was treated as follows: 6 grams of the cotton was immersed into temperature-controlled beaker glasses of a 60 ml solution (cloth/liquor ratio of 1/10), containing 0.5 g/l DTPA, 2 g/l Sandoclean PCJ, 2.3% H2O2 (equals to 6.66 ml (35%)/1; w/w wrt cotton), for 15 minutes at 75° C. Subsequently, sulphuric acid was added (1M) until the desired pH was added followed by 20 microM of [Mn2O3(Me3-TACN)2] (PF6)2.H2O and the mixture left for 15 minutes with continuous stirring. No NaOH solution was added during the bleaching process in the presence of catalyst. After the allocated time, the cloths are washed and dried as exemplified above. The values of the whiteness are expressed in Berger units, as defined above.
Table 2: Whiteness (Berger) results obtained using 20 microM [Mn2O3(Me3-TACN)2] (PF6)2.H2O in an unbuffered solution with 0.2 g/l DTPA at 75° C. for 15 minutes, after having the cloths allowed to pretreat with NaOH/H2O2 for 15 minutes at 75° C. (entry 1) vs adding the catalyst at the beginning of the bleaching experiment at pH 9.75.

[3] = Raw cotton bleaching, high starting pH left to reduce during bleaching (Experiment 3); conditions: 10 microM catalyst, H2O2, DTPA, 77° C., 30 minutes; pH(init) 10.7, pH(final) 9.7
Description: A batch of raw cotton with a Berger Whiteness value of 0 was treated as follows: 6 grams of the cotton was immersed into temperature-controlled beaker glasses a 60 ml solution (cloth/liquor ratio of 1/10) containing 10 microM of [Mn2O3(Me3-TACN)2] (PF6)2.H2O, 2.3% H2O2 (equals to 6.66 ml (35%)/l; w/w wrt cotton), 0.4 g/l H5-DTPA (ex Akzo-Nobel; trade name Dissolvine D50; purity is 50%), and 2 g/l Sandoclean PCJ (ex Clariant). The temperature of the experiment was 77° C.
The pH of water containing Sandoclean, Na5DTPA, cotton and appropriate amount of NaOH was determined at room temperature, heated to 77° C., the pH value was monitored and then hydrogen peroxide was added. Then a correction for the addition of hydrogen peroxide was made by adding some extra NaOH. Then the catalyst was added and left for 30 minutes under stirring. The cloths were then rinsed and washed as described above. The pH of the solution after the bleaching stage was determined after allowing the solution cooled down to room temperature. As a comparative experiment to determine the effect of the manganese-triazacyclononane compound, no catalyst was added. The values of the whiteness are expressed in Berger units, as defined above.

[4] = 20° C.; cited from earlier work

SMILES: CN1CCN(C)CCN(C)CC1.CN1CCN(C)CCN(C)CC1.F[P-](F)(F)(F)(F)F.F[P-](F)(F)(F)(F)F.O.[Mn+4].[Mn+4].[O-2].[O-2].[O-2] [[Mn2O3(Me3-TACN)2](PF6)2•H2O, [Mn2O3(Me3-TACN)2] (PF6)2.H2O]
- Whiteness (Berger) Wb ([1]; pH(init) 9.75, pH(final) 7.3 (pH not controlled)): 51.0 Wb
- Whiteness (Berger) Wb ([1]; pH(init) 10.0, pH(final) 9.5 (pH controlled with NaOH)): 63.1 Wb
- Whiteness lower without DTPA than the system with DTPA ([1]; in the presence of catalyst, without DTPA added): about 10 Wb
- Whiteness (Berger) Wb ([2]; 20 microM catalyst, 0.2 g/l DTPA, 75° C., 15 minutes after 15 minutes NaOH/H2O2 pretreatment, pH(step 1) 11, pH(step2) 10, pH(final) 9.4): 60.0 Wb
- Whiteness (Berger) Wb ([2]; catalyst added at the beginning, no pretreatment, pH 9.75, pH(final) 7.6): 51.0 Wb
- Whiteness (Berger) Wb [3]: 57.6 Wb
- water solubility [4]: 10.8 g per liter
